Experiments:
[1] = tested on: A549 tumor xenograph; assay: tumor response to therapeutic carboplatin; assay type: in vivo, nude mice; conditions: resistant A549 xenograph; single IV 37.3 mg/kg; 14 days
Source text: (§1) Xenograft mouse tumors consisting of one carboplatin resistant and one sensitive tumor type were established for in vivo evaluation of carboplatin-DNA monoadduct formation and repair in tumor tissue and for in vivo evaluation of tumor response to therapeutic dosing with carboplatin. Tumor xenografts were established in 1-2 month old nude mice by injecting approximately one million cells into the left and right flanks, and allowed to develop tumors of less than 1 cm^3 over approximately 4 weeks prior to DNA adduct studies. Mice bearing resistant and sensitive tumors were exposed to either a microdose or therapeutic dose of carboplatin by tail vein injection. DNA isolated from tumor tissue was evaluated for carboplatin-DNA monoadduct frequency levels as a function of time. For tumor response, mice bearing resistant and sensitive tumors were therapeutically treated with a single IV injection of 37.3 mg/kg of carboplatin and then examined for tumor growth as assessed by measuring palpable tumors with a caliper and calculating tumor volume.
(§2) Mice xenografted with sensitive (H232A) and resistant (A549) lung cancer cell lines were infused with a therapeutic dose of carboplatin to assess tumor response. The tumors were measured daily over 14 days post infusion (FIG. 10C). Tumor size was normalized as the ratio of tumor diameter to the tumor diameter measured on day 0 (no change=1.0). […]

[2] = tested on: H23 2A tumor xenograph; assay: tumor response to therapeutic carboplatin; assay type: in vivo, nude mice; conditions: sensitive H23 2A xenograph; single IV 37.3 mg/kg; 14 days
Source text: as §1, §2

[3] = tested on: A549, H1975 and HCC827; assay: carboplatin-DNA monoadducts by AMS, average of resistant NSCLC lines; assay type: cell-based, human; conditions: three resistant cell lines
Description: NSCLC cell lines were cultured to >90% confluence, dosed with [^14C]carboplatin, and subjected to DNA isolation and AMS analysis. 60 mm dishes were seeded at a density of 1×10^6 cells/dish and allowed to attach overnight in a 37° C. humidified atmosphere containing 5% CO2. At hour 0, cells were dosed with 1 μM (relevant microdose concentration) or 100 μM carboplatin (therapeutically relevant concentration), each comprising 0.3 μM [^14C]carboplatin (50,000 dpm/ml). Cells were incubated with [^14C]carboplatin for 4 h before washing and cultured with carboplatin-free medium to mimic the in vivo carboplatin half-life (1.3-6 hours) in patients. DNA was harvested from the cell lines at hours 0, 2, 4, 8 and 24 hours after initial dosing. Ten micrograms of DNA per sample was converted to graphite and measured by AMS for ^14C/total C quantification. Triplicate sets of AMS experiments were performed for each cell line and time point. The 14C/total C ratio was converted to 14C atoms per DNA base-pair according to the algorithm described herein to provide values of carboplatin-DNA monoadducts per 10^8 nucleotides. The data was plotted as carboplatin-DNA monoadducts per 10^8 nucleotide (nt) vs time (FIGS. 8A and 8B). There was a time-dependent increase in the carboplatin-DNA monoadduct concentration during the first 4 hours of incubation with therapeutic or microdosing carboplatin (FIGS. 8A and 8B). […]

[4] = tested on: MCF-7; assay: MTT assay, carboplatin cytotoxicity; assay type: cell-based, human; conditions: 72 hours
Description: (§3) Six breast cancer cell lines were tested. […] The cell lines were purchased from ATCC, and cultured in the recommended media. IC50 values were determined for each cell line using the MTT assay (Henderson et al., International Journal of Cancer 2011) after incubating cells for 72 hours with different concentrations of carboplatin. [^14C] carboplatin (53 mCi/mmol) was purchased from the GE Healthcare (Waukesha, Wis.) and further purified at Moravek Biochemical (Brea, Calif.). Unlabeled carboplatin (USP Pharmaceutical Grade) was used to minimize the usage of radiocarbon and achieve the specific activities required for microdoses and therapeutic doses.

[5] = tested on: MDA MB 231; assay: MTT assay, carboplatin cytotoxicity; assay type: cell-based, human; conditions: 72 hours
Description: as §3

[6] = tested on: Hs 578T; assay: MTT assay, carboplatin cytotoxicity; assay type: cell-based, human; conditions: 72 hours
Description: as §3

[7] = tested on: BT 549; assay: MTT assay, carboplatin cytotoxicity; assay type: cell-based, human; conditions: 72 hours
Description: as §3

[8] = tested on: MDA MB 468; assay: MTT assay, carboplatin cytotoxicity; assay type: cell-based, human; conditions: 72 hours
Description: as §3

[9] = tested on: T47D; assay: MTT assay, carboplatin cytotoxicity; assay type: cell-based, human; conditions: 72 hours
Description: as §3

[10] = tested on: 5637; assay: MTT assay IC50, bladder cancer cell line; assay type: cell-based, human; conditions: 72 hours
Description: Thus, we measured the IC50 of the six NSCLC cell lines from Example 2 to both cisplatin and carboplatin to determine if the sensitivity of these six NSCLC cell lines to the two drugs are correlated.
Drug-DNA adduct formation and repair was measured by accelerator mass spectrometry.
These two cell lines were also cultured with a range of concentrations of cisplatin, carboplatin, gemcitabine, doxorubicin, methotrexate and vinblastine for 72 hours to determine IC50 for these other drugs (FIG. 16C). These drugs were chosen because of their frequent use in the treatment of bladder cancer.

[11] = patients; cited from earlier work
[12] = human plasma pharmacokinetics of [14C]carboplatin; assay type: in vivo
Description: Two of the bladder cancer patients received two doses of [^14C]carboplatin, including the initial diagnostic microdose and a second microdose at the time of full therapeutic dose. This allowed us to compare the pharmacokinetics of carboplatin in plasma after both microdosing and therapeutic dosing (FIG. 11A). […] Therefore, microdosing and therapeutic dosing yield similar carboplatin pharmacokinetics in human patients.
The pharmacokinetics of carboplatin administered as a microdose was assessed in four patients (two with bladder cancer and two with NSLC) for the purpose of comparing interpatient variability and establishing the optimum time point for tumor biopsy sample acquisition.

[13] = sterile solution in water
Description: Radiolabeled carboplatin containing C^14 carbon atoms in the cyclobutane dicarboxylic acid group was formulated for human use as a sterile, pyrogen free solution at 5 mg/mL in water.

In the case of N.N.O=C([O-])C1(C(=O)[O-])CCC1.[Pt+2] [carboplatin], the “tumor response (growth after chemotherapy)” value [1] is reported as “continued to grow”, the “tumor response (growth after chemotherapy)” value [2] is reported as “did not display any growth” and the “average area under curve (AUC) of carboplatin-DNA monoadducts” value ([3]; microdosing) is reported as 43.36±9.55 hr-monoadducts per 10^8 nt. For the same compound, the “average area under curve (AUC) of carboplatin-DNA monoadducts” value ([3]; therapeutic dosing) was 3916.7±1280.0 hr-monoadducts per 10^8 nt, the IC50 [4] was 137 µM and the IC50 [5] was 250 µM. For the same compound, the IC50 [6] was 44 µM, the IC50 [7] was 68 µM and the IC50 [8] was 44 µM. The IC50 [9] was 250 µM, the IC50 [10] was 24.3 µM and the IC50 ([10]; listed as Carboplatin) was 24.35 ± 0.12 µM. The “in vivo carboplatin half-life in patients” value [11] was 1.3 to 6 h, the plasma half-life ([12]; microdose, four patients) was “a few hours” and the “time to essential clearance from the blood” value ([12]; microdose, four patients) was ≤ 24 h. For the same compound, the “difference in plasma elimination kinetics between therapeutic and microdoses” value ([12]; two bladder cancer patients, 24 h) was “less than 2 fold”, the “loss of radiopurity per year” value ([13]; storage at −20° C.) was < 2% and the stability to freeze/thaw ([13]; upon freezing) was “no observed precipitation”.
